Converted amounts (≈) assume the structure as drawn. Starred links: 1 amine or outer side, 2 acyl side, 3 side chain; linkers in the order of their positions; H or OH if unused. Non-standard residues stand in square brackets, D forms with d. Residues, ends and D or L forms follow the SMILES beside them. X1 = C[C@@H](N[*:1])P(=O)(O)CCC(=O)[*:2]
Legend:
Sortase A [1] = target: T1, Sortase A (Staphylococcus aureus, UniProt Q9S446); test: Inhibition of Staphylococcus aureus USA 300 SrtA expressed in Escherichia coli BL21 (DE3) cells using Dabcyl-QALPETGEE-Edans as substrate preincubated for 30 mins followed by substrate addition and further incubated for 1 hr by FRET assay
T1 sequence (Q9S446 whole entry): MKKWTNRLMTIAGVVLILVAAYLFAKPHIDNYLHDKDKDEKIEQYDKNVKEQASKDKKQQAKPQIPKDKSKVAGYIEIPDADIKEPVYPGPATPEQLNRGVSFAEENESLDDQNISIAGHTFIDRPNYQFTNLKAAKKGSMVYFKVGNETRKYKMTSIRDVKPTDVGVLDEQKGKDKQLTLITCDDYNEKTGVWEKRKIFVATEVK

Staphylococcus aureus [2] = test: Antibacterial activity against Staphylococcus aureus SA113 by microbroth dilution assay; assay type: functional
[3] = target: T2, Sortase A (Staphylococcus aureus) (UniProt Q9S446); test: Binding affinity to Staphylococcus aureus SrtA assessed as kinact/ki
T2 sequence (whole entry): T1 sequence (Q9S446 whole entry)

Sortase A [4] = target: T1, Sortase A; test: Inhibition of C-terminal 6His-tagged recombinant Staphylococcus aureus SrtA with 1 to 59 residues truncated from N-terminus expressed in Escherichia coli BL21 (DE3) using dabcyl-QALPETGEE-edans as substrate preincubated for 1 hr followed by substrate addition and measured for 1 hr by FRET assay
Staphylococcus aureus [5] = test: Inhibition of biofilm formation in Staphylococcus aureus ATCC 29213 incubated for 24 hrs by crystal violet staining based analysis; assay type: functional, organism-based; settings: ATCC 29213, 24 h
Staphylococcus aureus [6] = test: Inhibition of biofilm formation in Staphylococcus aureus ATCC 29213 at 100 uM incubated for 24 hrs by safranin staining based analysis relative to control; assay type: functional
Staphylococcus aureus [7] = test: Antibacterial activity against Staphylococcus aureus; assay type: functional
Staphylococcus aureus [8] = test: Inhibition of biofilm formation in Staphylococcus aureus ATCC 25923 at 100 uM incubated for 24 hrs by safranin staining based analysis relative to control; assay type: functional
Staphylococcus aureus [9] = test: Inhibition of biofilm formation in Staphylococcus aureus ATCC 6538 at 100 uM incubated for 24 hrs by safranin staining based analysis relative to control; assay type: functional
Sortase A [10] = target: T1, Sortase A; test: Inhibition of Staphylococcus aureus SrtA with 24 residues truncated from N-terminus using Abz-LPATG-Dap as substrate
Sortase A [11] = target: T1, Sortase A; test: Inhibition of recombinant Staphylococcus aureus SrtA deltaN59 using Dabcyl-[…]-Edans as substrate preincubated for 20 mins followed by substrate addition and measured after 1 hr by fluorescence based analysis
[12] = target: T2, Sortase A (Staphylococcus aureus); test: Binding affinity to Staphylococcus aureus SrtA assessed as first order rate constant of inactivation
[13] = target: T2, Sortase A (Staphylococcus aureus); test: Binding affinity to Staphylococcus aureus SrtA using Abz-DNP as substrate assessed as second order rate constant of inhibition, kinact/ki
Sortase A [14] = target: T1, Sortase A; test: Binding affinity to Staphylococcus aureus SrtA assessed as inhibition constant
Sortase A [15] = target: T1, Sortase A; test: Inhibition of Staphylococcus aureus ATCC 6538p SrtA using dabcyl-LPETG-edans as substrate incubated for 1 hr by fluorometric analysis
Sortase A [16] = target: T1, Sortase A; test: Inhibition of Staphylococcus aureus SrtA expressed in Escherichia coli by fluorescence based analysis
Sortase A [17] = target: T1, Sortase A; test: Inhibition of Staphylococcus aureus SrtA using FRET substrate incubated for 1 hr by FRET assay
Sortase A [18] = target: T1, Sortase A; test: Inhibition of recombinant Staphylococcus aureus SrtA using DabcylQALPETGEE-Edans as substrate by FRET assay
Sortase A [19] = target: T1, Sortase A; test: Inhibition of recombinant Staphylococcus aureus SrtA using Abz-LPETG-Dap(Dnp) as substrate

`O=C(/C=C/c1ccccc1)c1ccccc1` [CHALCONE] showed an IC50 (Sortase A [1]) of 53.2 µM.

`CSSc1ccccc1C(=O)N1CCC[C@H]1C(=O)NC12CC3CC(CC(C3)C1)C2` was tested, and the MIC (Staphylococcus aureus [2]) was 116 µM (≈ 50 µg/mL) and the Ratio [3] was 5.75 10^4/M/min.

With `Cc1cc(C(=O)/C(=N/Nc2ccc(Cl)c(Cl)c2)C(=O)O)no1` the IC50 (Sortase A [4]) was > 200 µM and the IC50 (Staphylococcus aureus [5]) was 0.8 µM.

`CC(=O)/C(=N/Nc1ccccc1)C(=O)O` was tested, and the inhibition at 100 µM (Staphylococcus aureus [6]) was 60%, the MIC (Staphylococcus aureus [7]) was > 270 µM and the inhibition at 100 µM (Staphylococcus aureus [8]) was 60%. The IC50 (Sortase A [4]) was 80 µM and the inhibition at 100 µM (Staphylococcus aureus [9]) was 60%.

`Clc1ccccc1-c1nn2c(-c3ccncc3)nnc2s1` was tested, and the IC50 (Sortase A [10]) was 37.7 µM.

With `CC(C)C[C@H](N)C(=O)N1CCC[C@H]1C(=O)N[C@@H](CCCNC(=N)N)C(=O)N[C@@H](CC(=O)O)C(=O)N[C@@H](C)C(=O)O` (H-LPRDA-OH) the IC50 (Sortase A [11]) was 10.6 µM.

For `CSSc1ccccc1C(=O)NCC(=O)NC12CC3CC(CC(C3)C1)C2`, the MIC (Staphylococcus aureus [2]) was 16 µM (≈ 6.25 µg/mL) and the Ratio [3] was 5.93 10^4/M/min.

For `O=C1C[C@H]2O[C@H](CCc3ccccc3)C3=C(C(=O)C=CC3=O)[C@H]2O1`, the Kinact [12] was 3.88 10^-2/min, the Ratio [13] was 1.09 10^4/M/min and the kinact/Ki [13] was 183 M⁻¹ s⁻¹. For the same compound, the Ki (Sortase A [14]) was 3.57 µM.

Work on `O=S(=O)(O)c1cccc(-c2nn3c(-c4ccncc4)nnc3s2)c1` yielded an IC50 (Sortase A [10]) of 9.3 µM.

In the case of `CCOC(=O)/C(=N\Nc1ccc(Cl)c(Cl)c1)C(=O)c1cc(C)nn1CC`, the IC50 (Sortase A [4]) is reported as > 200 µM and the IC50 (Staphylococcus aureus [5]) is reported as 1.7 µM.

`C[C@H]1CC[C@H]2[C@@H](C=C[C@@](C)(O)[C@]2(C)C(=O)CCO)C1` was tested, and the IC50 (Sortase A [15]) was 146 µM.

For `Cc1cc2nc3[nH]c(=O)[nH]c(=O)c3nc2cc1C` [LUMICHROME], the IC50 (Sortase A [16]) was 198 µM.

Work on `O=c1ccc2cc(O)c(O)cc2o1` [ESCULETIN] yielded an IC50 (Sortase A [17]) of 36.2 µM.

With `COc1ccc2c(c1OC)C(=O)O[C@@H]2[C@H]1c2cc3c(cc2CCN1C)OCO3` [HYDRASTINE] the IC50 (Sortase A [18]) was > 209 µM.

In the case of `CC(C)C[C@H](NC(=O)[C@H](C)NC(=O)[C@@H](N)Cc1ccc(O)cc1)C(=O)N1CCC[C@H]1C(=O)N[C@@H](CCC(=O)O)C(=O)N[C@H](C)P(=O)(O)CCC(=O)N[C@@H](CCC(=O)O)C(=O)N[C@@H](CCC(=O)O)C(N)=O` (H-YALPE[X1]EE-NH2), the IC50 (Sortase A [19]) is reported as 10000 µM.
